Measurements: patent publication US8124764B2, “Fused heterocyclyc inhibitor compounds” (Gilead Sciences, Inc., priority 2008, dated 2012)

Experiments:
HDAC 1 = HDAC 1 (Homo sapiens, UniProt Q13547); assay: HDAC 1 inhibition assay with about 3 hours enzyme/compound preincubation (fluorophore/quencher peptide substrate); format: biochemical; conditions: 3-hour preincubation of enzyme with compound; read-out: HDAC 1 inhibitory activity (IC50 [μM]) (3-hour preincubation)
Description: HDAC inhibitory activity of the compound of Example 1 was measured by two types of assays in which HDAC 1 was used as a target molecule. The first assay was carried out without preincubation after addition of the enzyme. The test compound was suspended in and titrated in dmso. It was then spotted into a 384-well test plate. The enzyme, HDAC 1, was diluted in assay buffer containing 25 mM Tris-HCl (pH 8.0), 137 mM NaCl, 2.7 mM KCl, and 0.01% Tween-20 and added to the pre-spotted compound. The peptide substrate containing a fluorophore/quencher pair was diluted in the same assay buffer and added to the compound/enzyme mix initiating the reaction. The reaction incubated at room temperature for about 45 minutes. A concentrated developer solution was diluted in the assay buffer, and added to the reaction. The reaction was incubated at room temperature for about 15 minutes and relative fluorescence was read on an instrument reader.
The second assay is similar to the first assay described above, except that preincubation is carried out for about 3 hours after the enzyme is introduced. The test compound was suspended in, and titrated in DMSO. It was then spotted into a 384-well test plate. The enzyme, HDAC 1, was diluted in the same assay buffer as used in the previous assay and added to the pre-spotted compound. The enzyme/compound mix was incubated at room temperature for about 3 hours. The peptide substrate containing a fluorophore/quencher pair was diluted in the assay buffer and added to the compound/enzyme mix initiating the reaction. The reaction incubated at room temperature for 45 minutes. A concentrated developer solution was diluted in the assay buffer, and added to the reaction. The reaction was incubated at room temperature for about 15 minutes and relative fluorescence was read on an instrument reader.

CDK2 = CDK2 (Homo sapiens, UniProt P24941); assay: CDK2 inhibition; format: biochemical

Chain of HDAC 1 (Q13547 whole entry, species assumed): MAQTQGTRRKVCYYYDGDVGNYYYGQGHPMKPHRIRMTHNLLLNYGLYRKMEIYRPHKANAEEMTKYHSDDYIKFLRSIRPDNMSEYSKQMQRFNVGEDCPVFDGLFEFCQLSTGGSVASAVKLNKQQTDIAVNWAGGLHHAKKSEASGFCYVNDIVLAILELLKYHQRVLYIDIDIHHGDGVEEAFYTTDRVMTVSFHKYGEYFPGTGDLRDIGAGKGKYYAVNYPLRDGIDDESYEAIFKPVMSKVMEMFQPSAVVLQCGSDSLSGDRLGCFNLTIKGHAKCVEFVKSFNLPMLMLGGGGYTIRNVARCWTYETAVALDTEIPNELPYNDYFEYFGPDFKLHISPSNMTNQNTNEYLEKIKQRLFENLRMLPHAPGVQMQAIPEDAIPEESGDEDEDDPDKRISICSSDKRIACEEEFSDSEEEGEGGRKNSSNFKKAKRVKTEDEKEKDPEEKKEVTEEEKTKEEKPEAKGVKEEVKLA

Work on Cc1nc2ccccn2c1-c1ccnc(Nc2ccc(C(=O)NO)s2)n1 [Example 52, N-hydroxy-5-(4-(2-methylimidazo[1,2-a]pyridin-3-yl)pyrimidin-2-ylamino)thiophene-2-carboxamide] yielded an IC50 (HDAC 1) of 0.31 µM and an IC50 (CDK2) of 0.07 µM.

In the case of Cc1nc2ccccn2c1-c1ccnc(Nc2ccc(C(=O)NO)cc2)c1 [Example 53, N-Hydroxy-4-[4-(2-methyl-imidazo[1,2-a]pyridin-3-yl)-pyridin-2-ylamino]-benzamide], the IC50 (HDAC 1) is reported as 0.021 µM and the IC50 (CDK2) is reported as 3.6 µM.

Cc1nc2ccccn2c1-c1ccnc(Nc2ccc(C(=O)Nc3ccccc3N)cc2)c1 [Example 54, N-(2-Amino-phenyl)-4-[4-(2-methyl-imidazo[1,2-a]pyridin-3-yl)-pyridin-2-ylamino]-benzamide] was tested, and the IC50 (HDAC 1) was 0.053 µM and the IC50 (CDK2) was 13.1 µM.

Molecule Nc1ccccc1NC(=O)c1ccc(Nc2cc(-c3cnc4ccccn34)ncn2)cc1 [Example 55, N-(2-Amino-phenyl)-4-(6-imidazo[1,2-a]pyridin-3-yl-pyrimidin-4-ylamino)-benzamide] has an IC50 (HDAC 1) of 0.2 µM and an IC50 (CDK2) greater than 40 µM.

Work on O=C(NO)c1ccc(N(CC(F)(F)F)c2nccc(-c3cnc4ccccn34)n2)cc1 [Example 57, N-Hydroxy-4-[(4-imidazo[1,2-a]pyridin-3-yl-pyrimidin-2-yl)-(2,2,2-trifluoro-ethyl)-amino]-benzamide] yielded an IC50 (HDAC 1) of 0.147 µM and an IC50 (CDK2) of 2.87 µM.

With Nc1ccccc1NC(=O)c1ccc(N(CC(F)(F)F)c2nccc(-c3cnc4ccccn34)n2)cc1 [Example 58, N-(2-Amino-phenyl)-4-[(4-imidazo[1,2-a]pyridin-3-yl-pyrimidin-2-yl)-(2,2,2-trifluoro-ethyl)-amino]-benzamide] the IC50 (HDAC 1) was 5.58 µM and the IC50 (CDK2) was greater than 40 µM.

Cc1nc2ccccn2c1-c1ccnc(Nc2cc(C(=O)Nc3ccccc3N)cs2)n1 [Example 59, N-(2-aminophenyl)-5-(4-(2-methylimidazo[1,2-a]pyridin-3-yl)pyrimidin-2-ylamino)thiophene-3-carboxamide] showed an IC50 (HDAC 1) of 0.993 µM and an IC50 (CDK2) of 0.04 µM.

In the case of Cc1nc2ccccn2c1-c1ccnc(Nc2cc(C(=O)NO)cs2)n1 [Example 60, N-hydroxy-5-(4-(2-methylimidazo[1,2-a]pyridin-3-yl)pyrimidin-2-ylamino)thiophene-3-carboxamide], the IC50 (HDAC 1) is reported as 0.164 µM and the IC50 (CDK2) is reported as 0.03 µM.

Cc1nc2ccccn2c1-c1ccnc(Nc2nc(C(=O)NO)cs2)n1 [Example 61, N-hydroxy-2-(4-(2-methylimidazo[1,2-a]pyridin-3-yl)pyrimidin-2-ylamino)thiazole-4-carboxamide] showed an IC50 (HDAC 1) of 1.8 µM and an IC50 (CDK2) of 0.56 µM.

Molecule Cc1nc2ccccn2c1-c1ccnc(Nc2nc(C(=O)Nc3ccccc3N)cs2)n1 [Example 62, N-(2-aminophenyl)-2-(4-(2-methylimidazo[1,2-a]pyridin-3-yl)pyrimidin-2-ylamino)thiazole-4-carboxamide] has an IC50 (HDAC 1) greater than 10 µM and an IC50 (CDK2) of 1.36 µM.

In the case of Cc1nc2ccccn2c1-c1ccnc(Nc2ncc(C(=O)Nc3ccccc3N)s2)n1 [Example 63, N-(2-aminophenyl)-2-(4-(2-methylimidazo[1,2-a]pyridin-3-yl)pyrimidin-2-ylamino)thiazole-5-carboxamide], the IC50 (HDAC 1) is reported as 0.224 µM and the IC50 (CDK2) is reported as 3.53 µM.

Cc1nc2ccccn2c1-c1ccnc(Nc2ccc(C(=O)NO)cn2)n1 [Example 64, N-hydroxy-6-(4-(2-methylimidazo[1,2-a]pyridin-3-yl)pyrimidin-2-ylamino)nicotinamide] gave an IC50 (HDAC 1) of 0.094 µM and an IC50 (CDK2) of 0.52 µM.

Cc1nc2ccccn2c1-c1ccnc(Nc2ncc(C(=O)NO)s2)n1 [Example 65, N-hydroxy-2-(4-(2-methylimidazo[1,2-a]pyridin-3-yl)pyrimidin-2-ylamino)thiazole-5-carboxamide] was tested, and the IC50 (HDAC 1) was 0.109 µM and the IC50 (CDK2) was 1.86 µM.

For Cc1nc2ccccn2c1-c1ccnc(Nc2ccc(C(=O)Nc3ccccc3N)cn2)n1 [Example 66, N-(2-aminophenyl)-6-(4-(2-methylimidazo[1,2-a]pyridin-3-yl)pyrimidin-2-ylamino)nicotinamide], the IC50 (HDAC 1) was 0.289 µM and the IC50 (CDK2) was 3.48 µM.

In the case of Cc1nc2ccccn2c1-c1ccnc(Nc2cnc(C(=O)NO)cn2)n1 [Example 67, N-hydroxy-5-(4-(2-methylimidazo[1,2-a]pyridin-3-yl)pyrimidin-2-ylamino)pyrazine-2-carboxamide], the IC50 (HDAC 1) is reported as 0.169 µM and the IC50 (CDK2) is reported as 0.68 µM.

For Cc1nc2ccccn2c1-c1ccnc(Nc2cnc(C(=O)Nc3ccccc3N)cn2)n1 [Example 68, N-(2-aminophenyl)-5-(4-(2-methylimidazo[1,2-a]pyridin-3-yl)pyrimidin-2-ylamino)pyrazine-2-carboxamide], the IC50 (HDAC 1) was 0.0206 µM and the IC50 (CDK2) was greater than 40 µM.

Molecule Cc1nc2ccccn2c1-c1ccnc(Nc2ccc(C(=O)NO)cn2)c1 [Example 69, N-hydroxy-6-(4-(2-methylimidazo[1,2-a]pyridin-3-yl)pyridin-2-ylamino)nicotinamide] has an IC50 (HDAC 1) of 0.141 µM and an IC50 (CDK2) of 0.15 µM.

Cc1nc2ccccn2c1-c1ccnc(Nc2ccc(C(=O)Nc3ccccc3N)cn2)c1 [Example 70, N-(2-aminophenyl)-6-(4-(2-methylimidazo[1,2-a]pyridin-3-yl)pyridin-2-ylamino)nicotinamide] gave an IC50 (HDAC 1) of 0.073 µM and an IC50 (CDK2) of 0.87 µM.

Cc1nc2ccccn2c1-c1ccnc(Nc2csc(C(=O)NO)c2)n1 [Example 71, N-hydroxy-4-(4-(2-methylimidazo[1,2-a]pyridin-3-yl)pyrimidin-2-ylamino)thiophene-2-carboxamide] was tested, and the IC50 (HDAC 1) was 0.185 µM and the IC50 (CDK2) was 0.026 µM.

In the case of Cc1nc2ccccn2c1-c1ccnc(Nc2ncc(C(=O)NO)s2)c1 [Example 73, N-hydroxy-2-(4-(2-methylimidazo[1,2-a]pyridin-3-yl)pyridin-2-ylamino)thiazole-5-carboxamide], the IC50 (HDAC 1) is reported as 0.185 µM and the IC50 (CDK2) is reported as 1.68 µM.

In the case of Cc1nc2ccccn2c1-c1ccnc(Nc2ncc(C(=O)NO)cn2)c1 [Example 74, N-hydroxy-2-(4-(2-methylimidazo[1,2-a]pyridin-3-yl)pyridin-2-ylamino)pyrimidine-5-carboxamide], the IC50 (HDAC 1) is reported as 0.104 µM and the IC50 (CDK2) is reported as 6.47 µM.

“N-hydroxy-2-(4-(2-methylimidazo[1,2-a]pyridin-3-yl)pyrimidin-2-ylamino)oxazole-5-carboxamide [Example 72]” gave an IC50 (HDAC 1) of 0.4 µM and an IC50 (CDK2) greater than 40 µM.
